Activity calls are given as the source filed them. No rule for the calls is given here.
Target: Serine/threonine-protein kinase mTOR (Homo sapiens) (UniProt P42345)
Assay: binders of mTOR FRB domain, biophysical, NMR (AID 1648)
Conditions: NMR binding to FRB domain, chemical shift

Serine/threonine-protein kinase mTOR (Homo sapiens), sequence (P42345 2015-2114): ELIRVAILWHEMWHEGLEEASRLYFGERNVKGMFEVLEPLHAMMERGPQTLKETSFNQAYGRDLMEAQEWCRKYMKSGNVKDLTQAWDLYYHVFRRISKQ

Row | SMILES | Kd
1 | O=c1[nH]c(=S)c2c(n1-c1ccccc1)CCC2 | > 4 mM (inactive)
2 | O=C(O)c1ccc(Oc2ccccc2)nc1 | > 4 mM (inactive)
3 | CC(=O)c1cccc(NC2=NCC(C)(C)S2)c1 | > 4 mM (inactive)
4 | CN(C)c1ccc2c(=O)[nH][nH]c(=O)c2c1 | > 4 mM (inactive)
5 | CC(=O)c1cccc(NC(=O)Nc2c(C)nn(C)c2C)c1 | > 4 mM (inactive)
6 | Cc1cccnc1NC1=NCC(C)S1 (centres undefined) | > 4 mM (inactive)
7 | Cc1ccccc1NC(=O)C1CC(=O)N=C(N)S1 (centres undefined) | > 4 mM (inactive)
8 | O=c1ccc2c([nH]1)CCCC2 | > 4 mM (inactive)
9 | Cc1ccc(C(=O)CS(C)(=O)=O)cc1 | > 4 mM (inactive)
10 | CCOC(=O)c1snnc1-c1ccccc1 | > 4 mM (inactive)
11 | CC(C)(CO)NC(=O)c1ccccc1F | > 4 mM (inactive)
12 | COc1ccccc1NC(=O)CCC(=O)O | > 4 mM (inactive)
13 | COc1cc(C(C)=O)cc(OC)c1O | > 4 mM (inactive)
14 | CCCc1cc2c(c(NC(C)=O)n1)c(=O)oc1ccccc12 | > 4 mM (inactive)
15 | COc1cccc(N2CCN(C(=O)c3cccnc3)CC2)c1 | > 4 mM (inactive)
16 | O=C1COc2ccccc2C(=O)N1 | > 4 mM (inactive)
17 | OCC1CCCC1O (centres undefined) | > 4 mM (inactive)
18 | Cc1c(N=Cc2ccc[nH]2)c(=O)n(-c2ccccc2)n1C | > 4 mM (inactive)
19 | COc1ccccc1C(=O)NC1CCN(C)CC1 | > 4 mM (inactive)
20 | O=C(Nc1ccon1)c1ccc(Br)o1 | > 4 mM (inactive)
21 | CCCCCC/C=C\CCCCCCCc1cccc(O)c1C(=O)O | > 4 mM (inactive)
22 | O=C(NC1=NCCS1)c1ccc2snnc2c1 | > 4 mM (inactive)
23 | Nc1nnc(SCc2ccc(F)cc2Cl)s1 | > 4 mM (inactive)

Row | SMILES | Kd
24 | CC(=O)Nc1nc(C)c(C(C)=O)s1 | > 4 mM (inactive)
25 | Cc1cc(CN2C(=O)c3ccccc3C2=O)on1 | > 4 mM (inactive)
26 | CC(=O)Oc1cc2c(c(C)c1OC(C)=O)CC=C1[C@@]2(C)CC[C@@]2(C)C3C[C@](C)(C(=O)O)CC[C@]3(C)CC[C@]12C (some centres undefined) | > 4 mM (inactive)
27 | COc1ccc(-c2noc(-c3ccco3)n2)cc1OC | > 4 mM (inactive)
28 | Cn1nnc2cc(C(=O)O)ccc21 | > 4 mM (inactive)
29 | O=C(c1cnsn1)N1CCN(c2ccccc2)CC1 | > 4 mM (inactive)
30 | COc1cc(-c2csc(C)n2)ccc1O | > 4 mM (inactive)
31 | Nc1ncnc(NCCOCCO)c1[N+](=O)[O-] | > 4 mM (inactive)
32 | S=c1nc(Cc2ccccc2)[nH][nH]1 | > 4 mM (inactive)
33 | COc1c2c(cc3c1OCO3)C13C=C[C@H](OC)CC1N(C2)CC3O (some centres undefined) | > 4 mM (inactive)
34 | COc1cc2c(cc1-c1coc3c4c(c(OC)cc3c1=O)OC(C)(C)C=C4)OCO2 | > 4 mM (inactive)
35 | Cc1cccc(N2C(=O)CC(=O)NC2=O)c1 | > 4 mM (inactive)
36 | c1ccc(C2NCCc3[nH]cnc32)cc1 (centres undefined) | > 4 mM (inactive)
37 | CC(=O)Nc1nnc(-c2ccccc2S(C)(=O)=O)o1 | > 4 mM (inactive)
38 | CC1CN(C2=NCCN2)CC(C)O1 (centres undefined) | > 4 mM (inactive)
39 | CC12CN3CC(C)(CN(C1)C3c1cccs1)C2O (centres undefined) | > 4 mM (inactive)
40 | Cc1ccc(-c2nn3c(C)nnc3s2)cc1N | > 4 mM (inactive)
41 | C=C1C2CC[C@@]3(C)[C@H](c4ccoc4)OC(=O)C[C@]13O[C@H]1CC(=O)C(C)(C)[C@H](C(O)C(=O)OC)[C@@]21C (some centres undefined) | > 4 mM (inactive)
42 | COC(=O)C[C@H]1C(C)(C)C(OC(C)=O)[C@]2(O)C=C3C(CC[C@]4(C)C3CC(=O)O[C@H]4c3ccoc3)C1(C)C2=O (some centres undefined) | > 4 mM (inactive)
43 | COc1cc2c(cc1OC)-c1nnnn1C(C)(C)C2 | > 4 mM (inactive)
44 | O=C(O)c1ccc(-n2cccn2)cc1 | > 4 mM (inactive)
45 | CCNC(CC(=O)Nc1ccc(F)cc1)C(=O)O (centres undefined) | > 4 mM (inactive)
46 | NC(=O)C1(S(=O)(=O)c2ccccc2)CC1 | > 4 mM (inactive)

Row | SMILES | Kd
47 | Cc1noc(C)c1C(=O)N1CCN(c2ncccn2)CC1 | > 4 mM (inactive)
48 | Cc1nc2ccccc2c(=O)n1CCCn1ccnc1 | > 4 mM (inactive)
49 | CN=C1SC(CC(=O)Nc2ccc(O)cc2)C(=O)N1C (centres undefined) | > 4 mM (inactive)
50 | C/C=C/C=N/NC(=O)c1ccc(=O)n(C)c1 | > 4 mM (inactive)
51 | Cc1cc(C)n(C/C=C/Cn2nc(C)cc2C)n1 | > 4 mM (inactive)
52 | Cc1cccc(C)c1N1C(=O)CCC1=O | > 4 mM (inactive)
53 | Cc1cc(=O)oc2cc(O)c(O)cc12 | > 4 mM (inactive)
54 | Cn1ccnc1SCc1cc(=O)[nH]c2ccccc12 | > 4 mM (inactive)
55 | CC1=C(/C=C/C(C)=C/C=C/C(C)=C/C=C/C=C(C)/C=C/C=C(C)/C=C/C(=O)[C@]2(C)C[C@@H](O)CC2(C)C)C(C)(C)C[C@H](O)C1 | > 4 mM (inactive)
56 | CC(=O)Nc1nc2c(s1)C(=O)NCCC2 | > 4 mM (inactive)
57 | COC(=O)[C@@H]1OC(=O)C2OC23[C@@]1(C)CCC1[C@]2(C)C(C[C@@H](O)[C@]13C)C(C)(C)[C@H](OC(C)=O)C[C@@H]2OC(C)=O (some centres undefined) | > 4 mM (inactive)
58 | O=C(O)CSc1nnc(-c2cccs2)o1 | > 4 mM (inactive)
59 | O=c1oc2ccccc2cc1O | > 4 mM (inactive)
60 | CC1(C)N=C2C(=[N+]1[O-])CCC/C2=N\O | > 4 mM (inactive)
61 | O=C1COc2cc(O)ccc21 | > 4 mM (inactive)
62 | Cc1ccc2c(c1)CC[C@H]1CC(=O)CC[C@]21C | > 4 mM (inactive)
63 | O=C(Nc1ccc(N2CCOCC2)cc1)c1cnsn1 | > 4 mM (inactive)
64 | COc1cc2c(cc1O)CC1c3c(cc(O)c(OC)c3-2)CCN1C (centres undefined) | > 4 mM (inactive)
65 | O=C(O)C(O)C(O)C(O)C(O)C(=O)O (centres undefined) | > 4 mM (inactive)
66 | CCOC(=O)c1csc(C2COc3ccccc3O2)n1 (centres undefined) | > 4 mM (inactive)
67 | CC(=O)Nc1ccc2c(C)cc(=O)[nH]c2c1 | > 4 mM (inactive)
68 | CN1CCN(C(=O)Nc2cccc3ccccc23)CC1 | > 4 mM (inactive)
69 | CC(=O)c1cccc(NC(=O)N2CCc3ccccc3C2)c1 | > 4 mM (inactive)

Row | SMILES | Kd
70 | C=CC1=C(C)/C(=C/c2[nH]c(Cc3[nH]c(/C=C4\NC(=O)C(C)=C4C=C)c(C)c3CCC(=O)O)c(CCC(=O)O)c2C)NC1=O | > 4 mM (inactive)
71 | CSc1nc(NC(C)(C)C)nc(N2CCOCC2)n1 | > 4 mM (inactive)
72 | CCc1ccc(/C=N/n2cnnc2)cc1 | > 4 mM (inactive)
73 | Cn1c(O)c(/C=C2\C=CC=N2)c(=O)[nH]c1=O | > 4 mM (inactive)
74 | O=[n+]1cc(C2=CC=CCC2)n([O-])c2c1CCCCC2 | > 4 mM (inactive)
75 | CC(=O)Nc1cccc(N2CCCC2=O)c1 | > 4 mM (inactive)
76 | CC(C)=CC(=O)Nc1ccc2c(c1)OCO2 | > 4 mM (inactive)
77 | O=C(CSc1nnc2ccccn12)N1CCOCC1 | > 4 mM (inactive)
78 | CCn1ccc(C(=O)Nc2nccs2)n1 | > 4 mM (inactive)
79 | CCCNC(=O)c1cnc2n(c1=O)CCS2 | > 4 mM (inactive)
80 | O=C(O)CCC(=O)Nc1nccs1 | > 4 mM (inactive)
81 | CC1CCc2cc(F)ccc2N1C(=O)c1ccc(=O)[nH]n1 (centres undefined) | > 4 mM (inactive)
82 | COc1ccc(NC(=O)CSc2nccc(=O)[nH]2)cc1 | > 4 mM (inactive)
83 | CSc1nc(C)cc(-n2ccc(=O)[nH]c2=O)n1 | > 4 mM (inactive)
84 | C/C=C(\C)C(=O)O[C@H]1C[C@@H](OC(C)=O)[C@@]2(C(=O)OC)CO[C@@H]3C2[C@]12CO[C@](O)(C(=O)OC)[C@H]2[C@](C)(C12O[C@@]1(C)[C@H]1C[C@@H]2OC2OC=C[C@@]21O)[C@@H]3O (some centres undefined) | > 4 mM (inactive)
85 | CCOc1ccc(N2C(=O)CCC2=O)cc1 | > 4 mM (inactive)
86 | O=C1NNC(=O)C2C3c4ccccc4C(c4ccccc43)C12 (centres undefined) | > 4 mM (inactive)
87 | C[C@]12CCC3C(CC[C@]4(O)C[C@@H](O)CC[C@]34C=O)[C@@]1(O)CCC2C1=CC(=O)OC1 (some centres undefined) | > 4 mM (inactive)
88 | CN1CCN(CC(=O)N2CCc3ccccc32)CC1 | > 4 mM (inactive)
89 | O=C(Nc1nncs1)c1c(F)cccc1F | > 4 mM (inactive)
90 | Cc1c(O)c(O)cc2c1CC=C1[C@@]2(C)CC[C@@]2(C)C3C[C@](C)(C(=O)O)CC[C@]3(C)CC[C@]12C (some centres undefined) | > 4 mM (inactive)
91 | CC(=O)c1cnc(Nc2nc(C)c3ccccc3n2)nc1C | > 4 mM (inactive)
92 | COC1=CC(=O)C=C(OC)C1=O | > 4 mM (inactive)

Row | SMILES | Kd
93 | NC(=O)c1cccc(Cl)n1 | > 4 mM (inactive)
94 | Cc1cc(C)c2nncn2n1 | > 4 mM (inactive)
95 | Clc1ccccc1OCc1nc(-c2ccncc2)no1 | > 4 mM (inactive)
96 | Nc1ccc2nccnc2c1 | > 4 mM (inactive)
97 | CCCCCC(=O)Cc1cc(O)cc(O)c1C(=O)Oc1cc(CC(=O)CCCCC)c(C(=O)O)c(OC)c1 | > 4 mM (inactive)
98 | CC(=O)N1CCN(S(=O)(=O)c2ccccc2)CC1 | > 4 mM (inactive)
99 | O=C(O)CNC(=O)c1ccc([N+](=O)[O-])cc1 | > 4 mM (inactive)
100 | N#Cc1cc(-c2ccccc2)oc1N | > 4 mM (inactive)
101 | COc1ccc(NC(=O)CCCC(=O)O)c(OC)c1 | > 4 mM (inactive)
102 | CC(=O)c1cc(C)ccc1O | > 4 mM (inactive)
103 | O=c1c2c(nc3nc(Cc4ccccc4)[nH]n13)CCC2 | > 4 mM (inactive)
104 | CCOC(=O)C1C(=O)C2CCN1CC2 (centres undefined) | > 4 mM (inactive)
105 | CC1(C)Oc2ccc3ccc(=O)oc3c2CC1O (centres undefined) | > 4 mM (inactive)
106 | O=c1n(-c2ccccc2)c(=O)n2n1CCCC2 | > 4 mM (inactive)
107 | C#CCCCCCCCCCCCC(=O)CC(O)COC(C)=O (centres undefined) | > 4 mM (inactive)
108 | CC1=CC(=O)NC2C=CC=CC12 (centres undefined) | > 4 mM (inactive)
109 | O=C1CSC(=Nc2ccc(Cl)cc2)N1 | > 4 mM (inactive)
110 | O=C(O)c1ccc(-c2cnco2)cc1 | > 4 mM (inactive)
111 | O=C1CC(NCc2ccco2)C(=O)NN1 (centres undefined) | > 4 mM (inactive)
112 | O=C(O)CCC(=O)c1cccc2ccccc12 | > 4 mM (inactive)
113 | Cn1nnc2cc(CN)ccc21 | > 4 mM (inactive)
114 | CCC(C)C(=O)OC1[C@@H]2CC3=C4CC(=O)O[C@@H](c5ccoc5)[C@]4(C)CCC3C(C)(C2=O)[C@@H](CC(=O)OC)C1(C)C (some centres undefined) | > 4 mM (inactive)
